Experimental data published in patent US6365759B1, “Intermediate compounds for preparing macrocylcic analogs” (Eisai Co., Ltd., priority 1998, dated 2002).
Read-outs that look alike come from different tables or passages of the source.

Columns and labels:
[1] = tested on: LOX human melanoma tumor xenograft; test: LOX melanoma xenograft growth inhibition assay; format: in vivo, mouse; conditions: FIG. 3
Description: FIG. 3 is a graph showing the average tumor volume in microliters as a function of time (days) in a LOX melanoma xenograft growth inhibition assay. […] Paclitaxel and a vehicle control were used.
Many of the individually disclosed drugs were tested for in vitro and in vivo activity (see Table 1, below). Screening methods included a standard in vitro cell growth inhibition assay using DLD-1 human colon cancer cells (ATCC accession number CCL 221) in a 96-well microtiter plate format (Finlay, G. J. et al Analytical Biochemistry 139:272-277, 1984), a U937 (ATCC accession number CRL 1593) mitotic block reversibility assay (described below), and in some cases, a LOX human melanoma tumor xenograft in vivo growth inhibition assay (see Table 1). Chemical stability to esterase degradation was also examined.

[2] = tested on: U937 human histiocytic lymphoma cells; test: U937 Mitotic Block Reversibility Assay; format: cell-based
[3] = tested on: DLD-1 human colon cancer cells; test: in vitro cell growth inhibition assay using DLD-1 cells; format: cell-based

Row | Compound | antitumor activity (average tumor volume over time) [1] | Complete Mitotic Block 0 hour [2] [nM] | Complete Mitotic Block 10 hour [2] [nM] | Reversibility Ratio [2] | minimum concentration required for complete mitotic block at 0 hour [2] [nM] | minimum concentration required for complete mitotic block at 10 hour [2] [nM] | reversibility ratio [2] | viability of cells at 5 days [2] | IC50 ([3]; Homo sapiens, DLD-1, read-out: DLD-1 mean IC50) [nM] | IC50 ([3]; read-out: DLD-1 mean IC50) [nM]
1 | C=C1CC2CCC34CC5OC6C(O3)C3OC(CCC3O[C@H]6C5O4)CC(=O)CC3C(CC4OC(CCC1O2)CC(C)C4=C)OC(CC(O)CN)C3OC (some centres unmarked) [Compound B1939] | antitumor activity | 12 | 12 | 1.0 | 10 | 10 | 1 | drops to very low levels | 19.3 | 
2 | C=C1CC2CCC34CC5OC6C(OC7CCC(CC(=O)CC8C(CC9OC(CCC1O2)CC(C)C9=C)OC(CC(O)CN1CC[C@@H](O)C1)C8OC)OC7C6O3)C5O4 (some centres unmarked) [ER803836] |  | 3 | 10 | 3.3 |  |  |  |  |  | 1.97
3 | C=C1CC2CCC34CC5OC6C(OC7CCC(CC(=O)CC8C(CC9OC(CCC1O2)CC(C)C9=C)OC(CC(O)CN1CCCCCC1)C8OC)OC7C6O3)C5O4 (centres unmarked) [ER803843] |  | 1 | 10 | 10.0 |  |  |  |  |  | 0.49
4 | C=C1CC2CCC34CC5OC6C(OC7CCC(CC(=O)CC8C(CC9OC(CCC1O2)CC(C)C9=C)OC(CC(O)CNCc1ccc(OC)cc1)C8OC)OC7C6O3)C5O4 (centres unmarked) [ER803845] |  | 3 | 10 | 3.3 |  |  |  |  |  | 1.5
5 | C=C1CC2CCC34CC5OC6C(OC7CCC(CC(=O)CC8C(CC9OC(CCC1O2)CC(C)C9=C)OC(CC(O)CNCCc1ccccc1)C8OC)OC7C6O3)C5O4 (centres unmarked) [ER803846] |  | 1 | 10 | 10.0 |  |  |  |  |  | 1.16
6 | C=C1CC2CCC34CC5OC6C(OC7CCC(CC(=O)CC8C(CC9OC(CCC1O2)CC(C)C9=C)OC(CC(O)CN1CCC[C@H]1CO)C8OC)OC7C6O3)C5O4 (some centres unmarked) [ER803851] |  | 3 | 3 | 1.0 |  |  |  |  |  | 3.33
7 | C=C1CC2CCC34CC5OC6C(OC7CCC(CC(=O)CC8C(CC9OC(CCC1O2)CC(C)C9=C)OC(CC(O)CN1CCC[C@@H]1CO)C8OC)OC7C6O3)C5O4 (some centres unmarked) [ER803852] |  | 3 | 10 | 3.3 |  |  |  |  |  | 3.03
8 | C=C1CC2CCC34CC5OC6C(OC7CCC(CC(=O)CC8C(CC9OC(CCC1O2)CC(C)C9=C)OC(CC(O)CN1CCOCC1)C8OC)OC7C6O3)C5O4 (centres unmarked) [ER803868] |  | 3 | 10 | 3.3 |  |  |  |  |  | 0.43
9 | C=C1CC2CCC34CC5OC6C(OC7CCC(CC(=O)CC8C(CC9OC(CCC1O2)CC(C)C9=C)OC(CC(O)CNCC)C8OC)OC7C6O3)C5O4 (centres unmarked) [ER803869] |  | 3 | 3 | 1.0 |  |  |  |  |  | 4.13
10 | C=C1CC2CCC34CC5OC6C(OC7CCC(CC(=O)CC8C(CC9OC(CCC1O2)CC(C)C9=C)OC(CC(O)Cn1ccnc1)C8OC)OC7C6O3)C5O4 (centres unmarked) [ER803870] |  | 3 | 30 | 10.0 |  |  |  |  |  | 1.27
11 | C=C1CC2CCC34CC5OC6C(OC7CCC(CC(=O)CC8C(CC9OC(CCC1O2)CC(C)C9=C)OC(CC(O)CN(CC)CC)C8OC)OC7C6O3)C5O4 (centres unmarked) [ER803883] |  | 1 | 10 | 10.0 |  |  |  |  |  | 1.02
12 | C=C1CC2CCC34CC5OC6C(OC7CCC(CC(=O)CC8C(CC9OC(CCC1O2)CC(C)C9=C)OC(CC(O)CNCc1ccc(Cl)cc1)C8OC)OC7C6O3)C5O4 (centres unmarked) [ER803884] |  | 1 | 10 | 10.0 |  |  |  |  |  | 0.59
